The text below walks through data of patent EP1190034B1, “BLEACH ACTIVATOR BASED ON INULIN” (Coöperatie Cosun U.A., priority 1999, dated 2001).

A short description of one data set: Solubility in water. It is filed as physicochemical.
A short description of data set [1]: Bleach activator test procedure (peracetic acid liberated, iodometric titration). The following applies: hydrogen peroxide, 30 °C, pH 11.6, 4 minutes, correction factor 1.10. As for the experimental part:
The bleach activator property is determined on the basis of the quantity of peracetic acid that can be liberated from the product. […] The best characteristics are found when the acylation is carried out in water at controlled pH (Table 1).
Mix the following solutions: • 15 ml 0.6% hydrogen peroxide solution • 10 ml saturated sodium pyrophosphate solution • 10 ml 0.05% EDTA solution. • Make up to 100 ml with demineralised water and heat to 30 °C. • Add the heated mixture to an accurately weighed amount (75 - 90 mg) of bleach activator in a 600 ml glass beaker. • Adjust the pH to 11.6 with 0.1 M NaOH solution. • Precisely 4 minutes after the first addition add 30 ml 0.1% catalase solution. • Adjust the pH to 10.5 with 0.5 M sulphuric acid solution and cool the solution to 0 - 3 °C. • Precisely 6 minutes after the first addition add 15 ml 100% acetic acid solution and 15 ml 10% potassium iodide solution. • Titrate the liberated iodine against a 0.1 M thiosulphate solution. The mol% peracetic acid liberated from the bleach activator can be calculated from the quantity of thiosulphate solution required, 2 mmol thiosulphate corresponding to 1 mmol peracetic acid formed. The determinations were corrected for the loss of peracetic acid during the measurement. The correction factor for this loss is 1.10.

SMILES strings stand for the structures.

For the compound `CC(=O)N(CCN(C(C)=O)C(C)=O)C(C)=O` [TAED, tetraacetylethylenediamine], the “Solubility (%)” value in the data set “Solubility in water” is listed as 0.1%. Further, the “Peracetate formed (mol%)” value in data set [1] (100 x number of mols of peracetate formed / total number of mols of acetyl groups in product) is given as 45 mol%. In data set [1], the “mol peracetate/ kg product” value is on record as 7.9 mol peracetate/ kg product.
